Consider seven compounds from ChEMBL document CHEMBL1136042, “Design, synthesis, and neuraminidase inhibitory activity of GS-4071 analogues that utilize a novel hydrophobic paradigm” (Bioorg Med Chem Lett, 2002).

pKi: −log10 of the molar value.

A short description of the assay: The compound was tested for its inhibition against Neuraminidase of the influenza RNA virus.
`CCO[C@@H]1C=C(C(=O)O)C[C@H](N)[C@H]1NC(C)=O` had a pKi of 6.74.

Consider `C=CC[C@H]1CC(C(=O)O)=C[C@@H](OC(C)C)[C@@H]1NC(C)=O`, for which the pKi is 5.96.

`C=C[C@H]1CC(C(=O)O)=C[C@@H](OC(C)C)[C@@H]1NC(C)=O` had a pKi of 7.35.

Take `C=CC[C@H]1CC(C(=O)O)=C[C@@H](OC(CC)CC)[C@@H]1NC(C)=O`: the pKi is 5.89.

`C=C[C@@H]1CC(C(=O)O)=C[C@@H](OC(C)C)[C@@H]1NC(C)=O` showed a pKi of 4.16.

`C=CC[C@@H]1CC(C(=O)O)=C[C@@H](OC(C)C)[C@@H]1NC(C)=O` had a pKi of 4.85.

`CC(=O)N[C@@H]1[C@@H](CCO)CC(C(=O)O)=C[C@H]1OC(C)C` gave a pKi of 5.39.

Usually pKi stands for −log10 of the Ki, conventionally taken in molar units. High values mean a small Ki, low ones a large Ki.
